Source: patent US5849259A, “3-,8-substituted deuteroporphyrin derivatives, pharmaceutical agents containing the latter and process for their production” (priority 1992, dated 1998)

Experiments:
[1] = tested on: Novikoff-hepatoma; assay: Signal intensity change in tissues of tumor-bearing (Novikoff-hepatoma, i.m.) nude rats, Bruker Biospec 2.35 Tesla, MSSE; format: in vivo, nude rats (LEW/Mol rnu/rnu); conditions: 0.1 mmol/kg i.v.
Description: The measurements were made with a multi slice single echo sequence (MSSE). […] […] The relative intensities relative to the respective initial intensity (=1.00 set) are indicated.

[2] = tested on: HT29 and WiDr colon cancer; assay: Signal intensity change in tissues of tumor-bearing (HT29 and WiDr colon cancer) nude mice, example 1c, 0.5 mmol/kg; format: in vivo, nude mice (Balb/c nu/nu); conditions: 0.5 mmol/kg i.v.
Protocol: d) On a Bruker Biospec nuclear spin tomograph (2.35 Tesla), the signal intensity change in various tissues of tumor-bearing (HT29 and WiDr colon cancer) nude mice (Balb/c nu/nu) was studied after i.v. administration of 0.5 mmol/kg of the compound of example 1c (10 mmol/l, pH 7.2; 37° C. in bidistilled water). The measurement takes place with a multi slice single echo sequence (MSSE). Imaging parameters: TR: 400 ms, TE: 30 ms, layer thickness: 4 mm, number of averages: 4/slice, matrix 256^2. After a preliminary image, 0.5 mmol/kg of the substance was administered and the signal intensity change studied up to 180 minutes p.i.

[3] = Tissue concentrations by ICP-AES after 0.1 mmol/kg i.v. in nude mice with subcutaneously implanted colon cancers (HT29, WiDr); format: in vivo, nude mice (Balb/c nu/nu)
Protocol: (§1) a) 9 nude mice (Balb/c nu/nu) with subcutaneously implanted colon cancers (HT29, WiDr) were each administered by i.v. 0.1 mmol/kg of the mesoporphyrin derivative of example 1b (10 mmol/l dissolved in bidistilled water, pH 7.2, 37° C.). After 0.5, 3 and 24 hours the animals were killed and dissected. The tissue concentrations were determined after corresponding working-up (HNO3 conc.) by ICP-AES and calculated for % of the administered dose per gram of tissue net weight.
e) 9 nude mice (Balb/c nu/nu) with subcutaneously implanted colon cancers (HT29 and WiDr) were each administered by i.v. 0.1 mmol/kg of the deuteroporphyrin derivative of the compound according to example 1c (10 mmol/l dissolved in bidistilled water, pH 7.2, 37° C.). After 0.5, 3 and 24 hours, the animals were killed and dissected. The tissue concentrations were determined after corresponding working-up (HNO3 conc.) by ICP-AES and calculated for % of the administered dose per gram of tissue net weight. Moreover, tissue relaxation times T1 and T2 were determined (Bruker minispec pc 120).
as §1, with “9” for “a) 9”, “8e” for “1b”, “hours,” for “hours”
as §1, with “9” for “a) 9”, “0.1.” for “0.1”, “16f” for “1b”, “0.5 and” for “0.5,”, “3” for “3 and 24”
as §1, with “9” for “a) 9”, “18d” for “1b”, “0.5 and” for “0.5,”, “hours,” for “and 24 hours”
as §1, with “9” for “a) 9”, “19e” for “1b”, “hours,” for “hours”

N,N'-Bis[9-carboxylato-2,5,8-tris(carboxylatomethyl)-2,5,8-triazanonyl-carbamoyl]-mesoporphyrin-IX-13,17-diamide, digadolinium complex, disodium salt [Example 1c]
elimination route [1]: eliminated mainly renally
average enhancement, Kidneys ([1]; 1 min): 1.67 ± 0.35
average enhancement, Liver ([1]; 1 min): 1.43 ± 0.24
average enhancement, Muscle ([1]; 1 min): 1.60 ± 0.01
average enhancement, Tumor ([1]; 1 min): 1.63 ± 0.24
average enhancement, Kidneys ([1]; 15 min): 2.13 ± 0.28
average enhancement, Liver ([1]; 15 min): 1.34 ± 0.22
average enhancement, Muscle ([1]; 15 min): 1.54 ± 0.06
average enhancement, Tumor ([1]; 15 min): 1.71 ± 0.19
average enhancement, Kidneys ([1]; 30 min): 2.14 ± 0.38
average enhancement, Liver ([1]; 30 min): 1.31 ± 0.21
average enhancement, Muscle ([1]; 30 min): 1.47 ± 0.08
average enhancement, Tumor ([1]; 30 min): 1.72 ± 0.23
average enhancement, Kidneys ([1]; 45 min): 2.10 ± 0.30
average enhancement, Liver ([1]; 45 min): 1.17 ± 0.16
average enhancement, Muscle ([1]; 45 min): 1.41 ± 0.10
average enhancement, Tumor ([1]; 45 min): 1.79 ± 0.21
average enhancement, Kidneys ([1]; 60 min): 2.12 ± 0.19
average enhancement, Liver ([1]; 60 min): 1.31 ± 0.09
average enhancement, Muscle ([1]; 60 min): 1.33 ± 0.05
average enhancement, Tumor ([1]; 60 min): 1.78 ± 0.24
average enhancement, Kidneys ([1]; 75 min): 1.93 ± 0.19
average enhancement, Liver ([1]; 75 min): 1.37 ± 0.05
average enhancement, Muscle ([1]; 75 min): 1.37 ± 0.01
average enhancement, Tumor ([1]; 75 min): 1.64 ± 0.17
average enhancement, Kidneys ([1]; 90 min): 1.96 ± 0.08
average enhancement, Liver ([1]; 90 min): 1.22 ± 0.24
average enhancement, Muscle ([1]; 90 min): 1.24 ± 0.03
average enhancement, Tumor ([1]; 90 min): 1.75 ± 0.27
average enhancement, Kidneys ([1]; 120 min): 1.92 ± 0.33
average enhancement, Liver ([1]; 120 min): 1.23 ± 0.07
average enhancement, Muscle ([1]; 120 min): 1.28 ± 0.08
average enhancement, Tumor ([1]; 120 min): 1.77 ± 0.23
average enhancement, Kidneys ([1]; 150 min): 1.86 ± 0.18
average enhancement, Liver ([1]; 150 min): 1.16 ± 0.22
average enhancement, Muscle ([1]; 150 min): 1.20 ± 0.06
average enhancement, Tumor ([1]; 150 min): 1.73 ± 0.23
average enhancement, Kidneys ([1]; 180 min): 1.84 ± 0.24
average enhancement, Liver ([1]; 180 min): 1.07 ± 0.20
average enhancement, Muscle ([1]; 180 min): 1.15 ± 0.04
average enhancement, Tumor ([1]; 180 min): 1.85 ± 0.09
average enhancement, Kidneys ([1]; 190 min): 1.73 ± 0.00
average enhancement, Liver ([1]; 190 min): 1.27 ± 0.00
average enhancement, Muscle ([1]; 190 min): 1.21 ± 0.00
average enhancement, Tumor ([1]; 190 min): 1.45 ± 0.00
signal intensity, liver and muscles ([1]; after 2-3 hours): the initial intensity almost returned
increase in the intensity, studied tissues ([1]; directly after administration): ~60%
signal intensity, tumor ([1]; during the observation time): remained at an almost unchanged high level
signal intensity, kidneys relative to tumors ([1]; up to 150 minutes): high above that which could be determined in the tumors
signal intensity change, liver tissue and both tumors ([2]; 5 minutes p.i.): marked signal intensity increase
signal intensity change, muscle ([2]; reference tissue): smaller signal increase
tissue concentration, kidneys ([3]; 0.5 hour p.i.): 4.06 ± 1.01 % of the administered dose per gram of tissue net weight
tissue concentration, kidneys ([3]; 3 hours p.i.): 4.47 ± 1.63 % of the administered dose per gram of tissue net weight
tissue concentration, kidneys ([3]; 24 hours p.i.): 4.20 ± 0.27 % of the administered dose per gram of tissue net weight
